In assay [1] the target is T1, p38 MAPK, active phosphomimetic mutant (Homo sapiens, UniProt Q16539, D176A).
T1 construct: gene MAPK14; p38 active form expressed in HEK293T cells
Briefly: degradation of expressed mutant in HEK293T cells (immunoblot). It counts as cell-based.

Assay [2] deals with T2, phosphorylated p38 MAPK (p-p38) (Homo sapiens, UniProt Q16539).
T2 construct: gene MAPK14; phosphorylated p38 in HEK293T cells
Briefly: CRBN- and proteasome-dependent degradation in cells (immunoblot DC50). It counts as cell-based. Background: Immunoblotting shows a protein as a band on a membrane.

T1 sequence (Q16539 2-360 D176A): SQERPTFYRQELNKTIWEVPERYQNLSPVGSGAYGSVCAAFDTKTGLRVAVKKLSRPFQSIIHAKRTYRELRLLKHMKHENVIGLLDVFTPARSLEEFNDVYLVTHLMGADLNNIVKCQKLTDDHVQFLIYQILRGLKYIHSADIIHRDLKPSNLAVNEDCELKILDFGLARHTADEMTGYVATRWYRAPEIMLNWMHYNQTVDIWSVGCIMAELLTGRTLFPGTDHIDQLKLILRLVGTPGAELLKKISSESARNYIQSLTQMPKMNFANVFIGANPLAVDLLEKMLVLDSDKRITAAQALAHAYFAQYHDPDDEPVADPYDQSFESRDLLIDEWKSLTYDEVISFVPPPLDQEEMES
T2 sequence (Q16539 2-360): as the sequence (Q16539 2-360 D176A) above, with A175D counted along it
T2 sequence (Q96SW2 whole entry partner): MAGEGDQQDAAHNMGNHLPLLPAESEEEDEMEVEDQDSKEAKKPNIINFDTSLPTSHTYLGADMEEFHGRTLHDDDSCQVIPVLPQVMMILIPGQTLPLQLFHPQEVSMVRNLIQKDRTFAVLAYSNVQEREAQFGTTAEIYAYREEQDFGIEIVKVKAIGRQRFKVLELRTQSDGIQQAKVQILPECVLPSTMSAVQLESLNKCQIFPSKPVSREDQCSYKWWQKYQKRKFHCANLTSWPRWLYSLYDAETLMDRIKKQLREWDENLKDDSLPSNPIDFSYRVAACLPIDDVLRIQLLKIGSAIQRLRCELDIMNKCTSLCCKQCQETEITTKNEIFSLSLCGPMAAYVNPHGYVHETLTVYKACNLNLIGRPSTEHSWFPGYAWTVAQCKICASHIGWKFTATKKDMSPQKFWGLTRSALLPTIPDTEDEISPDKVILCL

Usually DC50 stands for the concentration giving 50% degradation. A lower DC50 goes with degradation at low concentration. For `Cc1ccc(C(=O)NC2CC2)cc1-c1ccc(C(=O)c2ccc(OCCOCCOC(=O)Nc3cccc4c3C(=O)N(C3CCC(=O)NC3=O)C4=O)cc2)cc1` (centres unmarked) [compound 2, PRZ-18002], in assay [1], the “degradation of expressed mutant in HEK293T cells (immunoblot)” value is given as “significant reduction of active p38 mutant (D176A) in preference to wild-type p38”. In assay [2], this compound displayed a DC50 of 93 nM.

These data come from PMC10037464, “Chemical Knockdown of Phosphorylated p38 Mitogen-Activated Protein Kinase (MAPK) as a Novel Approach for the Treatment of Alzheimer′s Disease” (ACS Central Science, 2023).
